Reference: the supplement of paper PMC10307832

How the values were obtained:
Experiment in all cases: relative viability (nuclei count vs DMSO), 5 days (fraction); higher = more cells survive
Crenolanib + Lapatinib = compound: CC1(COc2ccc3c(c2)ncn3-c2ccc3cccc(N4CCC(N)CC4)c3n2)COC1 [Crenolanib] + CS(=O)(=O)CCNCc1ccc(-c2ccc3ncnc(Nc4ccc(OCc5cccc(F)c5)c(Cl)c4)c3c2)o1 [Lapatinib] (partner 2 µM)
Outline: (§1)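 Lung cancer cell lines, seeded in 1536-well plates, were treated the following day by pin tool with a single drug or with five library-drug doses (not always all listed) in √10 steps on top of a fixed anchor-drug dose. Cells were fixed and nuclei stained in one step after 5 days, and nuclei were counted. Relative viability is the nuclei count for treated wells divided by that for vehicle wells, reported as medians of duplicate plates.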

Crenolanib + Olaparib = compound: CC1(COc2ccc3c(c2)ncn3-c2ccc3cccc(N4CCC(N)CC4)c3n2)COC1 [Crenolanib] + O=C(c1cc(Cc2n[nH]c(=O)c3ccccc23)ccc1F)N1CCN(C(=O)C2CC2)CC1 [Olaparib] (partner 8 µM)
Outline: as §1

Tivantinib + Tozasertib = compound: O=C1NC(=O)[C@@H](c2cn3c4c(cccc24)CCC3)[C@@H]1c1c[nH]c2ccccc12 [Tivantinib] + Cc1cc(Nc2cc(N3CCN(C)CC3)nc(Sc3ccc(NC(=O)C4CC4)cc3)n2)n[nH]1 [Tozasertib] (partner 0.1 µM)
Outline: as §1

Tivantinib + Decitabine = compound: O=C1NC(=O)[C@@H](c2cn3c4c(cccc24)CCC3)[C@@H]1c1c[nH]c2ccccc12 [Tivantinib] + Nc1ncn([C@H]2C[C@H](O)[C@@H](CO)O2)c(=O)n1 [Decitabine] (partner 2 µM)
Outline: as §1

Cell Line	relative viability (Crenolanib + Lapatinib; first compound 0.01 µM)	relative viability (Crenolanib + Lapatinib; first compound 0.03162 µM)	relative viability (Crenolanib + Lapatinib; first compound 0.1 µM)	relative viability (Crenolanib + Lapatinib; first compound 0.3162 µM)	relative viability (Crenolanib + Lapatinib; first compound 1 µM)	relative viability (Crenolanib + Olaparib; first compound 0.01 µM)	relative viability (Crenolanib + Olaparib; first compound 0.03162 µM)	relative viability (Crenolanib + Olaparib; first compound 0.1 µM)	relative viability (Crenolanib + Olaparib; first compound 0.3162 µM)	relative viability (Crenolanib + Olaparib; first compound 1 µM)	relative viability (Tivantinib + Tozasertib; first compound 0.01 µM)	relative viability (Tivantinib + Tozasertib; first compound 0.03162 µM)	relative viability (Tivantinib + Tozasertib; first compound 0.1 µM)	relative viability (Tivantinib + Tozasertib; first compound 0.3162 µM)	relative viability (Tivantinib + Decitabine; first compound 0.01 µM)	relative viability (Tivantinib + Decitabine; first compound 0.03162 µM)	relative viability (Tivantinib + Decitabine; first compound 0.1 µM)	relative viability (Tivantinib + Decitabine; first compound 0.3162 µM)
NCI-H1915	0.943	0.927	1.01	0.956	0.764	0.267	0.278	0.266	0.283	0.244	0.427	0.412	0.422	0.391	0.279	0.248	0.263	0.254
NCI-H1944	0.814	0.809	0.839	0.617	0.698	0.404	0.387	0.412	0.413	0.397	0.257	0.232	0.264	0.204	0.43	0.451	0.44	0.401
NCI-H1975	0.844	0.968	0.774	0.891	0.702	0.768	0.699	0.73	0.726	0.731	0.773	0.744	0.645	0.714	0.446	0.395	0.358	0.34
NCI-H1993	0.805	0.759	0.856	0.787	0.784	1.16	1.13	1.07	1.15	0.937	0.541	0.595	0.543	0.51	0.59	0.503	0.506	0.539
NCI-H2009	1.07	0.889	0.899	0.913	0.906	0.694	0.672	0.694	0.682	0.555	0.734	0.696	0.755	0.651	0.361	0.365	0.328	0.391
NCI-H2023	1.04	0.898	0.844	0.889	0.47	0.53	0.467	0.476	0.451	0.322	0.337	0.325	0.268	0.308	0.24	0.218	0.212	0.221
NCI-H2085	0.65	0.81	0.731	0.745	0.799		0.752	0.714	0.782	0.784	0.764	0.798	0.755	0.749	0.534	0.556	0.554	0.551
NCI-H2087	1.14	1	0.985	1.18	1.09	0.602	0.643	0.547	0.671	0.623	0.311	0.257	0.235	0.3	0.326	0.311	0.21	0.196
NCI-H2126	0.796	0.742	0.745	0.775	0.71	0.928	0.91	0.893	0.994	0.952	0.91	0.785	0.831	0.538	0.57	0.549	0.587	0.547
NCI-H2170	0.272	0.283	0.281	0.276	0.247	0.608	0.674	0.54	0.711	0.671	0.771	0.619	0.749		0.47	0.48	0.486	
NCI-H2347	0.981	0.903	0.663	1.05	0.873	0.555	0.457	0.536	0.59	0.636	0.71	0.6	0.53	0.624	0.699	0.592	0.623	0.629
NCI-H2405	1.02	1.13	0.85	0.998	0.948	0.919		0.742	0.919	0.86	0.759	0.782	0.756	0.707	0.754	0.789	0.73	0.79
NCI-H3122	1.02	0.976	1.01	1.09	1.21	0.678	0.622	0.641	0.727	0.61	0.409	0.36	0.508	0.146	0.434	0.484	0.398	0.434
PC-3 [JPC-3]	0.452	0.45	0.511	0.449	0.452	1.26		1.01	1.06	1.06	0.877	0.902	0.945	0.705	0.766	0.798	0.839	0.6
PC-14	0.311	0.294	0.335	0.335	0.324	0.255	0.257	0.299	0.249	0.257	0.635	0.558	0.594	0.379	0.238	0.234	0.223	0.142
RERF-LC-KJ	0.917	0.886	0.903	0.872	0.812	0.864	0.942	0.871	1.03	0.93	0.539	0.532	0.473	0.403	0.802	0.632	0.63	0.622
SK-LU-1	0.911	0.917	0.694	0.921	0.958	0.547	0.491	0.331	0.7	0.534	0.331	0.357	0.312	0.323	0.711	0.679	0.593	0.555
SK-MES-1	0.449	0.504	0.422	0.467	0.458	0.759	0.705	0.682	0.791	0.674	0.903	0.904	0.824	0.862	0.299	0.351		0.337
